ChEMBL document CHEMBL1128128, “Relationship between structure and bioavailability in a series of hydroxamate based metalloprotease inhibitors” (Bioorg Med Chem Lett, 1995)

Experiments:
[1] = Biliary excretion when administered intravenously at a dose of 5 mg/kg in rats; assay type: ADME, organism-based; set-up: dose 5 mg/kg, route intravenous; settings: rat, bile, iv, read-out: Biliary excretion
Interstitial collagenase = biological target: T1, Interstitial collagenase (Homo sapiens, UniProt P03956); experiment: Evaluated for inhibitory activity against Human fibroblast collagenase (HFC)
T1 sequence (P03956 whole entry): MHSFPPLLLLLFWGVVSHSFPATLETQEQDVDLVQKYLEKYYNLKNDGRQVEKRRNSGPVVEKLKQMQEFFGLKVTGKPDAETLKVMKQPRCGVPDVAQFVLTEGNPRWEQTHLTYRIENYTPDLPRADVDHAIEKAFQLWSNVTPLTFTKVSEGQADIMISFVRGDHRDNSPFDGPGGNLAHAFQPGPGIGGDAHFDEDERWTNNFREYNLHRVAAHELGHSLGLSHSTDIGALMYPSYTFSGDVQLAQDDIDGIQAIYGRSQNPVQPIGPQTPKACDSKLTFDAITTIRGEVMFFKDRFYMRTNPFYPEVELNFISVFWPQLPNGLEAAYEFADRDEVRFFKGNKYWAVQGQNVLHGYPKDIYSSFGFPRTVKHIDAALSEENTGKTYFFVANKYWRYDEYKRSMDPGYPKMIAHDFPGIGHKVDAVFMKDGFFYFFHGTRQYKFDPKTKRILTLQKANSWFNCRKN

[2] = Plasma half-life in rats; assay type: ADME, organism-based; settings: rat
Rattus norvegicus = species: Rattus norvegicus; experiment: Plasma half-life in rats; <MQL; assay type: ADME, organism-based; settings: in vivo
[3] = Biliary excretion when administered intravenously at a dose of 2.5 mg/kg in rats; assay type: ADME, organism-based; set-up: dose 2.5 mg/kg, route intravenous; settings: rat, bile, iv, read-out: Biliary excretion
[4] = Maximum concentration in portal vein was determined at a concentration of 10 mg/kg in rats; assay type: ADME, organism-based; set-up: dose 10 mg/kg; settings: rat, portal vein blood
[5] = Plasma half-life was determined; assay type: ADME, cell-free
[6] = Maximum concentration in portal vein was determined at a concentration of 20 mg/kg in rats; assay type: ADME, organism-based; set-up: dose 20 mg/kg; settings: rat, portal vein blood

Structure (SMILES)	dose excreted [1] [%]	Ki (Interstitial collagenase) [nM]	half-life [2] [min]	T1/2 (Rattus norvegicus)	dose excreted [3] [%]	Cmax [4] [ng/mL]	half-life [5] [min]	Cmax [6] [ng/mL]
COc1ccc(C(=O)CCCCNC(=O)[C@H](Cc2c[nH]c3ccccc23)NC(=O)[C@@H](CC(=O)NO)CC(C)C)cc1	74.5	2	2.5	–	–	–	–	–
CC(C)C[C@H](CC(=O)NO)C(=O)N[C@@H](Cc1c[nH]c2ccccc12)C(=O)NCCCCOCc1ccccc1	99.9	2	27	–	–	–	–	–
CC(C)C[C@H](CC(=O)NO)C(=O)N[C@@H](Cc1c[nH]c2ccccc12)C(=O)NCCSc1ccccc1	43.9	3	33.3	–	–	–	–	–
CC(C)C[C@H](CC(=O)NO)C(=O)N[C@@H](Cc1c[nH]c2ccccc12)C(=O)NCc1ccc(CN(C)C)cc1	–	4	–	<MQL	80.7	–	–	–
CC(C)C[C@H](CC(=O)NO)C(=O)N[C@@H](Cc1c[nH]c2ccccc12)C(=O)NCCSCCN1CCOCC1	30.8	4	42.5	–	–	–	–	–
CC(C)C[C@H](CC(=O)NO)C(=O)N[C@@H](Cc1c[nH]c2ccccc12)C(=O)NCCSCCN(C)C	60.8	5	43.7	–	–	2800	–	–
COCCNC(=O)[C@H](Cc1c[nH]c2ccccc12)NC(=O)[C@@H](CC(=O)NO)CC(C)C	59.2	5	19	–	–	–	–	–
CC(C)C[C@H](CC(=O)NO)C(=O)N[C@@H](Cc1c[nH]c2ccccc12)C(=O)NCCN(C)C	18.9	12	–	–	–	–	21	–
CNC(=O)[C@H](Cc1ccc(OC)cc1)NC(=O)[C@@H](CC(=O)NO)CC(C)C	84.1	–	9	–	–	–	–	–
CC(C)C[C@H](CC(=O)NO)C(=O)N[C@@H](Cc1c[nH]c2ccccc12)C(=O)NCCCCC(=O)O	108	1	6.9	–	–	–	–	–
CSCCCNC(=O)[C@H](Cc1c[nH]c2ccccc12)NC(=O)[C@@H](CC(=O)NO)CC(C)C	53	1	37	–	–	–	–	–
CC(C)C[C@H](CC(=O)NO)C(=O)N[C@@H](Cc1c[nH]c2ccccc12)C(=O)NCCCCN(C)C	–	3	26.6	–	17.9	–	–	–
CC(C)C[C@H](CC(=O)NO)C(=O)N[C@@H](Cc1c[nH]c2ccccc12)C(=O)NCCS(N)(=O)=O	61.3	6	17.6	–	–	–	–	–
CC(C)C[C@H](CC(=O)NO)C(=O)N[C@@H](Cc1c[nH]c2ccccc12)C(=O)NCCCN(C)C	18.1	3	25	–	–	–	–	–
CC(C)C[C@H](CC(=O)NO)C(=O)N[C@@H](Cc1c[nH]c2ccccc12)C(=O)NCC[S+](C)[O-] (stereo not given in full)	44.8	2	7.4	–	–	–	–	–
CC(C)C[C@H](CC(=O)NO)C(=O)N[C@@H](Cc1c[nH]c2ccccc12)C(=O)NCCS(C)(=O)=O	67.2	3	24	–	–	–	–	–
CCSCCNC(=O)[C@H](Cc1c[nH]c2ccccc12)NC(=O)[C@@H](CC(=O)NO)CC(C)C	46	3	37.6	–	–	–	–	900
CSCCNC(=O)[C@H](Cc1c[nH]c2ccccc12)NC(=O)[C@@H](CC(=O)NO)CC(C)C	27.3	5	32.4	–	–	–	–	–
